Usually IC50 stands for the concentration at which inhibition is half-maximal.

Here are results for 17 compounds from US10501479B2, “Benzenesulfonyl-asymmetric ureas and medical uses thereof” (HELSINN HEALTHCARE SA, priority 2016, dated 2019).

Data set [1] has as its target T1, GHSR-1a (HEK293/GHSR1a cell line) (Homo sapiens, UniProt Q92847).
T1 construct: expressed in transfected cells; host or cells: HEK293/GHSR1a cell line
The experiment in a line: Ghrelin agonist potency (EC50) with calcium FLIPR assay. The data set is classed as cell-based. The procedure, abridged:
(§1)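 Dye preload 30-60 min, RT or 37° C; compound in DMSO. Agonist mode: compound at t=20 sec, Ca2+ read 2 min. Antagonist mode: compound + ghrelin 10 nM at t=20 sec, 2 min read. EC50/IC50 from dose-response curves.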

Data set [2] deals with T2, recombinant human ghrelin receptor (HEK293/GRLN) (Homo sapiens, UniProt Q92847).
T2 construct: expressed in transfected cells
T2 sequence (Q92847 whole entry): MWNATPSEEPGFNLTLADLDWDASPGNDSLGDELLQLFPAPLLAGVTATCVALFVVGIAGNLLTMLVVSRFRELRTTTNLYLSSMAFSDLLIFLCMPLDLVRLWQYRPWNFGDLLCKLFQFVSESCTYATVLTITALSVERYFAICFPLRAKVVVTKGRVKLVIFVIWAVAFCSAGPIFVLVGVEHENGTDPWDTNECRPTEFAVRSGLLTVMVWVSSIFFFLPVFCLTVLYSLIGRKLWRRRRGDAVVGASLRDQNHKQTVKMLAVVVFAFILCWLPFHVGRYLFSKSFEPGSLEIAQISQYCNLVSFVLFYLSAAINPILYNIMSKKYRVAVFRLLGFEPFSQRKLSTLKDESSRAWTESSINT
As to the kind of experiment: Ghrelin inverse agonist potency (EC50) with IP-1 (IP-One HTRF) assay. Format: cell-based. The settings on record: IP-1 assay. The procedure, abridged: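 HEK293/GRLN cells were seeded 18-22 hours before the test, then exposed to compound in stimulation buffer for 1 hour at 37° C, 5% CO2. IP-1 was detected by IP-One HTRF (IP1-d2 plus Tb-cryptate, 1 hour RT), reading 620 and 665 nm; the inverse agonist EC50 was derived from this.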

A short description of data set [3]: Metabolic stability in human liver microsomes. The data set is classed as in vitro ADME. The gist of the method: (§2)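 Parent compound was measured by LC-MS/MS at 0, 10, 30 and 90 min after NADPH-initiated incubation with liver microsomes at 37 °C. Buffer was 100 mM potassium phosphate, pH 7.4; time-zero concentration was taken before NADPH addition.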
(In general: Liver microsomes are vesicles of endoplasmic reticulum, rich in cytochrome P450 enzymes.)

The nature of data set [4]: Metabolic stability in mouse liver microsomes. The data set is classed as in vitro ADME. The gist of the method:
as §2

The target of data set [5] is T1, GHSR-1a (HEK293/GHSR1a cell line). As to the kind of experiment: Ghrelin antagonist potency (IC50) with calcium FLIPR assay, ghrelin 10 nM. Format: cell-based. The gist of the method:
as §1

Setting [6] is: HEK293/GHSR1a, read-out: Activity EC50/EMax: EC50 (ghrelin agonist potency).
[7] abbreviates: HEK293/GRLN, read-out: Activity EC50 (ghrelin inverse agonist potency).
Where [8] appears, read: HEK293/GHSR1a, ghrelin 10 nM, read-out: Activity IC50 (ghrelin antagonist potency).
Setting [9] is: ghrelin agonist potency, read-out: Activity EC50/EMax.
Where [10] appears, read: ghrelin inverse agonist potency, read-out: Activity EC50.
Where [11] appears, read: ghrelin antagonist potency, read-out: Activity IC50.

Where two headings read alike, the source gives them in different places. A value given as a limit tells only on which side of the number the result lay.

T1 sequence (Q92847 whole entry): as above

For the compound `CC(NC(=O)Nc1ccc(S(=O)(=O)Cc2ccc3c(c2)CN(C)C3)cc1)c1c(F)cccc1F` (stereo not shown) [H1429, 1-(1-(2,6-difluorophenyl)ethyl)-3-(4-(((2-methylisoindolin-5-yl)methyl)sulfonyl)phenyl)urea], the EC50 in data set [1] (setting [6]) was more than 30 µM; in data set [2] (setting [7]), 0.00731 µM. Also, the “Metabolic Stability Study H = human” value in data set [3] was 65.2 µL/min/mg. Moreover, the “Metabolic Stability Study M = mouse” value in data set [4] was 63.6 µL/min/mg. Also, the half-inhibitory concentration (IC50) in data set [5] (setting [8]) turned out to be 0.16 µM.
On to `CC(NC(=O)Nc1ccc(S(=O)(=O)Cc2ccc3c(c2)CNC3)cc1)c1cc(F)cc(F)c1` (stereo not shown) [H1445, 1-(1-(3,5-difluorophenyl)ethyl)-3-(4-((isoindolin-5-ylmethyl)sulfonyl)phenyl)urea], for which the EC50 in data set [1] (setting [6]) is more than 30 µM; in data set [2] (setting [7]), 0.0039 µM. In addition, the “Metabolic Stability Study H = human” value in data set [3] was 19.4 µL/min/mg. Moreover, the “Metabolic Stability Study M = mouse” value in data set [4] came to 17.3 µL/min/mg. Further, the IC50 in data set [5] (setting [8]) amounted to 0.0238 µM.
On to `CC(NC(=O)Nc1ccc(S(=O)(=O)Cc2cc3c(s2)CN(C)C3)cc1)c1ccccc1` (stereo not shown) [H1321, 1-(4-(((5-methyl-5,6-dihydro-4H-thieno[2,3-c]pyrrol-2-yl)methyl)sulfonyl)phenyl)-3-(1-phenylethyl)urea], for which the EC50 was more than 30 µM in data set [1] (setting [6]) and 0.0232 µM in data set [2] (setting [7]). In addition, the “Metabolic Stability Study H = human” value in data set [3] turned out to be 85.3 µL/min/mg. Further, in data set [4], the “Metabolic Stability Study M = mouse” value amounted to 81.9 µL/min/mg. In data set [5] (setting [8]), the IC50 came out at 0.0475 µM.
As to `COc1cc(S(=O)(=O)Cc2ccc3c(c2)CCN(C)C3)ccc1NC(=O)N(O)C(C)c1cccc(Cl)c1Cl.O=C(O)C(F)(F)F` (stereo not shown) [H1523, 1-(1-(2,3-dichlorophenyl)ethyl)-1-hydroxy-3-(2-methoxy-4-(((2-methyl-1,2,3,4-tetrahydroisoquinolin-6-yl)methyl)sulfonyl)phenyl)urea], the results for the EC50 in data set [1] (setting [9]) and in data set [2] (setting [10]) were more than 30 µM and 0.0021 µM, respectively. In data set [3], the “Metabolic Stability Study H = human” value worked out at 100.9 µL/min/mg. Further, the “Metabolic Stability Study M = mouse” value in data set [4] amounted to 155.5 µL/min/mg. For the same compound, in data set [5] (setting [11]), the IC50 is 0.00492 µM.
As to `COc1cc(S(=O)(=O)Cc2ccc3c(c2)CC(C)N(C)C3)ccc1NC(=O)NC(C)c1cccc(Cl)c1Cl` (stereo not shown) [H1431, 1-(1-(2,3-dichlorophenyl)ethyl)-3-(4-(((2,3-dimethyl-1,2,3,4-tetrahydroisoquinolin-6-yl)methyl)sulfonyl)-2-methoxyphenyl)urea], the EC50 is more than 30 µM in data set [1] (setting [6]) and 0.000657 µM in data set [2] (setting [7]). Moreover, the “Metabolic Stability Study H = human” value in data set [3] stood at 99.7 µL/min/mg. For the same compound, the “Metabolic Stability Study M = mouse” value in data set [4] was found to be 135.7 µL/min/mg. The IC50 in data set [5] (setting [8]) stood at 0.00454 µM.
The matching figures for `CC(NC(=O)Nc1ccc(S(=O)(=O)Cc2ccc3c(c2)CN(C2CCOC2)C3)cc1)c1ccccc1.O=C(O)C(F)(F)F` (stereo not shown) [H1340, 1-(1-phenylethyl)-3-(4-(((2-(tetrahydrofuran-3-yl)isoindolin-5-yl)methyl)sulfonyl)phenyl)urea]: more than 30 µM, 0.0033 µM, 282.4 µL/min/mg, more than 500 µL/min/mg and 0.0047 µM.
For the compound `CC(NC(=O)Nc1ccc(S(=O)(=O)Cc2cc3c(s2)CCN(C)C3)cc1)c1cccc(Cl)c1Cl` (stereo not shown) [H1359, 1-(1-(2,3-dichlorophenyl)ethyl)-3-(4-(((5-methyl-4,5,6,7-tetrahydrothieno[3,2-c]pyridin-2-yl)methyl)sulfonyl)phenyl)urea], the EC50 in data set [1] (setting [6]) is more than 30 µM; in data set [2] (setting [7]) it was 0.004 µM. The “Metabolic Stability Study H = human” value in data set [3] was “H = 108.6 M = 108.6 R = not reported D = not reported μL/min/mg”. Besides, the “Metabolic Stability Study M = mouse” value in data set [4] was “H = 108.6 M = 108.6 R = not reported D = not reported μL/min/mg”. Further, in data set [5] (setting [8]), the IC50 amounted to 0.0015 µM.
On to `COc1cc(S(=O)(=O)Cc2ccc3c(c2)CN(C)C3)ccc1NC(=O)NC(C)c1ccccc1F` (stereo not shown) [H1426, 1-(1-(2-fluorophenyl)ethyl)-3-(2-methoxy-4-(((2-methylisoindolin-5-yl)methyl)sulfonyl)phenyl)urea], for which the EC50 in data set [1] (setting [6]) is more than 30 µM; in data set [2] (setting [7]), 0.0034 µM. Further, the “Metabolic Stability Study H = human” value in data set [3] is 77.3 µL/min/mg. For the same compound, the “Metabolic Stability Study M = mouse” value in data set [4] worked out at 80.6 µL/min/mg. Besides, the IC50 in data set [5] (setting [8]) was found to be 0.0529 µM.
In the case of `C[C@H](NC(=O)Nc1ccc(S(=O)(=O)Cc2ccc3c(c2)CN(C)C3)cc1)c1ccccc1` [H1299, (S)-1-(4-(((2-methylisoindolin-5-yl)methyl)sulfonyl)phenyl)-3-(1-phenylethyl)urea], the EC50 in data set [1] (setting [6]) is more than 30 µM; in data set [2] (setting [7]) it was 0.102 µM. Moreover, the “Metabolic Stability Study H = human” value in data set [3] is 71.5 µL/min/mg. The “Metabolic Stability Study M = mouse” value in data set [4] came to 50.9 µL/min/mg. The IC50 in data set [5] (setting [8]) came to 0.192 µM.
Take `C[C@H](NC(=O)Nc1ccc(S(=O)(=O)Cc2ccc3c(c2)CCNCC3)cc1)c1ccccc1` [H1306, (S)-1-(1-phenylethyl)-3-(4-(((2,3,4,5-tetrahydro-1H-benzo[d]azepin-7-yl)methyl)sulfonyl)phenyl)urea]: the EC50 was more than 30 µM in data set [1] (setting [6]) and 0.0746 µM in data set [2] (setting [7]). In addition, in data set [3], the “Metabolic Stability Study H = human” value came to 31.2 µL/min/mg. The “Metabolic Stability Study M = mouse” value in data set [4] was 19.6 µL/min/mg. Also, the IC50 in data set [5] (setting [8]) was 0.062 µM.
As to `CC(NC(=O)Nc1ccc(S(=O)(=O)Cc2ccc3c(c2)CN(C)C3)cc1)c1ccc(F)cc1` (stereo not shown) [H1268, 1-(1-(4-fluorophenyl)ethyl)-3-(4-(((2-methylisoindolin-5-yl)methyl)sulfonyl)phenyl)urea], the EC50 in data set [1] (setting [6]) was more than 30 µM; in data set [2] (setting [7]) it was 0.0299 µM. Also, in data set [3], the “Metabolic Stability Study H = human” value is 108.7 µL/min/mg. Moreover, in data set [4], the “Metabolic Stability Study M = mouse” value was 60.5 µL/min/mg. Besides, the IC50 in data set [5] (setting [8]) worked out at 0.0832 µM.
Regarding `COc1ccccc1C(C)NC(=O)Nc1ccc(S(=O)(=O)Cc2ccc3c(c2)CNC3)cc1F.Cl` (stereo not shown) [H1390, 1-(2-fluoro-4-((isoindolin-5-ylmethyl)sulfonyl)phenyl)-3-(1-(2-methoxyphenyl)ethyl)urea], the values for the EC50 in data set [1] (setting [6]) and in data set [2] (setting [7]) were more than 30 µM and 0.0107 µM, respectively. Moreover, the “Metabolic Stability Study H = human” value in data set [3] was 34.6 µL/min/mg. In addition, in data set [4], the “Metabolic Stability Study M = mouse” value was 55.9 µL/min/mg. Further, in data set [5] (setting [8]), the IC50 was 0.0364 µM.
On to `COc1cccc(F)c1C(C)NC(=O)Nc1ccc(S(=O)(=O)Cc2ccc3c(c2)CN(C)C3)cc1` (stereo not shown) [H1454, 1-(1-(2-fluoro-6-methoxyphenyl)ethyl)-3-(4-(((2-methylisoindolin-5-yl)methyl)sulfonyl)phenyl)urea], for which the figures for the EC50 in data set [1] (setting [6]) and in data set [2] (setting [7]) were more than 30 µM and 0.0061 µM, respectively. Besides, the “Metabolic Stability Study H = human” value in data set [3] is 259.9 µL/min/mg. The “Metabolic Stability Study M = mouse” value in data set [4] amounted to 193.3 µL/min/mg. Also, the IC50 in data set [5] (setting [8]) came out at 0.0318 µM.
As for `COc1cc(S(=O)(=O)Cc2ccc3c(c2)CN(C)C3)ccc1NC(=O)N(O)C(C)c1ccccc1` (stereo not shown) [H1518, 1-hydroxy-3-(2-methoxy-4-(((2-methylisoindolin-5-yl)methyl)sulfonyl)phenyl)-1-(1-phenylethyl)urea], the EC50 in data set [1] (setting [9]) was more than 30 µM; in data set [2] (setting [10]) it was 0.0078 µM. The “Metabolic Stability Study H = human” value in data set [3] is 151.1 µL/min/mg. Also, the “Metabolic Stability Study M = mouse” value in data set [4] stood at 154.7 µL/min/mg. In addition, in data set [5] (setting [11]), the IC50 stood at 0.0274 µM.
With `COc1cc(NC(=O)N(O)C(C)c2ccccc2)ccc1S(=O)(=O)Cc1ccc2c(c1)CNC2` (stereo not shown) [H1515, 1-hydroxy-3-(4-((isoindolin-5-ylmethyl)sulfonyl)-3-methoxyphenyl)-1-(1-phenylethyl)urea], the EC50 was more than 30 µM in data set [1] (setting [9]) and 0.0096 µM in data set [2] (setting [10]). Moreover, the “Metabolic Stability Study H = human” value in data set [3] is 15.2 µL/min/mg. Moreover, the “Metabolic Stability Study M = mouse” value in data set [4] is 18.4 µL/min/mg. In addition, in data set [5] (setting [11]), the IC50 came to 0.0157 µM.
With `COc1cc(S(=O)(=O)Cc2ccc3c(c2)CNC3)ccc1NC(=O)NC(C)c1ccccc1OC` (stereo not shown) [H1393, 1-(4-((isoindolin-5-ylmethyl)sulfonyl)-2-methoxyphenyl)-3-(1-(2-methoxyphenyl)ethyl)urea], the EC50 was more than 30 µM in data set [1] (setting [6]) and 0.00373 µM in data set [2] (setting [7]). Also, the “Metabolic Stability Study H = human” value in data set [3] turned out to be 55.5 µL/min/mg. The “Metabolic Stability Study M = mouse” value in data set [4] amounted to 55.1 µL/min/mg. Further, the IC50 in data set [5] (setting [8]) amounted to 0.0092 µM.
Take `CC(NC(=O)Nc1ccc(S(=O)(=O)Cc2ccc3c(c2)CN(C)C3)cc1)c1cc(F)cc(F)c1` (stereo not shown) [H1446, 1-(1-(3,5-difluorophenyl)ethyl)-3-(4-(((2-methylisoindolin-5-yl)methyl)sulfonyl)phenyl)urea]: the EC50 is more than 30 µM in data set [1] (setting [6]) and 0.009 µM in data set [2] (setting [7]). Further, the “Metabolic Stability Study H = human” value in data set [3] is 177.6 µL/min/mg. For the same compound, in data set [4], the “Metabolic Stability Study M = mouse” value turned out to be 58.5 µL/min/mg. The IC50 in data set [5] (setting [8]) was 0.0965 µM.
